From the NIST ThermoML archive (doi:10.1016/j.jct.2018.06.021)

Tests used:
[1] = 101.33 kPa, Liquid; for viscosity: Falling or rolling sphere viscometry; for mass density: Vibrating tube method
[2] = wn = mass fraction of the nth substance listed; details: 101.3 kPa, Liquid, Vibrating tube method

OCCO [1,2-ethanediol]
[1]
Details	mass density [kg/m3]	viscosity [mPa·s]
303.15 K	1106.3	13.66
308.15 K	–	11.32
313.15 K	1099.2	9.474
318.15 K	–	8.016
323.15 K	1092.1	6.849
328.15 K	1088.4	5.903
333.15 K	1084.8	5.124
338.15 K	1081.2	4.482
343.15 K	1077.5	3.946
348.15 K	1073.7	3.496
353.15 K	1070	3.112

OCCO [1,2-ethanediol] + O
mass density [kg/m3], [2]
Details	293.25 K	293.45 K	303.15 K	303.45 K	313.15 K	323.25 K	333.25 K	333.35 K
w1 = 0.95	–	1109.3	–	1102.4	–	1088.3	–	1081
w1 = 1	1113.6	–	1106.5	–	1099.2	1091.9	1084.6	–

O [water] + OCCO
[2], w2 = 0
Details	mass density [kg/m3]
323.25 K	988
333.35 K	983.1
